# Measurements as given in patent US8003649B2 (AstraZeneca AB, priority 2007, dated 2011).
# Target: T1, Androgen Receptor (AR) (Homo sapiens, UniProt P10275, T878A)
# T1 construct: cell based immuno-fluorescence assay using the LNCaP prostate epithelial cell line; endogenous in cells; host or cells: LNCaP clone FGC (ATCC CRL-1740)
# T1 sequence (P10275 1-920 T878A): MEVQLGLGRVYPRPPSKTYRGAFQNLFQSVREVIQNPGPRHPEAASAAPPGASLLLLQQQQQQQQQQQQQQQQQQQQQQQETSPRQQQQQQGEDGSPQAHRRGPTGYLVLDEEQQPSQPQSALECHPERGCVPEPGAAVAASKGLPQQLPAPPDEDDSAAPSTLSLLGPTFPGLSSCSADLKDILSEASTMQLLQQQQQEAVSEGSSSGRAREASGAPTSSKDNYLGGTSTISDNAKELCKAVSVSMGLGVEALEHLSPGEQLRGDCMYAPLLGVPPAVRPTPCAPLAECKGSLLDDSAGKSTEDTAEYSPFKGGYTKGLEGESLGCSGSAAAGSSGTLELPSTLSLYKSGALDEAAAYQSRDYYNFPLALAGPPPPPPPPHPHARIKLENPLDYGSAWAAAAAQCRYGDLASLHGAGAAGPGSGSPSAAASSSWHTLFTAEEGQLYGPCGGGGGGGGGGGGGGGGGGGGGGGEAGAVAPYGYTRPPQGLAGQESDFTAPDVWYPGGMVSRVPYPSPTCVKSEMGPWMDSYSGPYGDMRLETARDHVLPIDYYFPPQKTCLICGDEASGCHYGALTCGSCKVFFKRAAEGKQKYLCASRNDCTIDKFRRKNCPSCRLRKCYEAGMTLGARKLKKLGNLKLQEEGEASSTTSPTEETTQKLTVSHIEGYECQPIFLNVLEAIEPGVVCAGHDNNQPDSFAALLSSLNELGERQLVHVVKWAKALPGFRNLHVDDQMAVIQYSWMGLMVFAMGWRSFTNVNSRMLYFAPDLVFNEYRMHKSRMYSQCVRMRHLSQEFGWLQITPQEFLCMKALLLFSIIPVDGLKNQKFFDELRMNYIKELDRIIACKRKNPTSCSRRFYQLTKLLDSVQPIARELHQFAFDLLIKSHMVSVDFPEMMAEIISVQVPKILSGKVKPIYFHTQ
# Experiment: LNCaP Androgen Receptor Down-regulation Cell Assay (immunofluorescence end point)
# Type: cell-based
# Details: LNCaP prostate carcinoma cells, compound incubation 20-22 hours, 50% reduction of the AR signal; read-out: Androgen Receptor Down-regulation Assay (a) IC50/μM
# Outline: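 AR loss reported as IC50 from curve fits of fluorescence dose-response data, with AR immunostained and read by laser-scanning cytometry. Compound exposure was 20-22 h at 37° C in LNCaP cells grown in 5% charcoal-stripped FBS and plated overnight beforehand.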
row,Compound,DC50 [µM]
1,"Nc1ccc(CN2CCN(c3ccc4nnc(C(F)(F)F)n4n3)CC2)cc1 [Example 212, 4-((4-(3-(trifluoromethyl)-[1,2,4]triazolo[4,3-b]pyridazin-6-yl)piperazin-1-yl)methyl)aniline]",3.7
2,"O=C(Nc1ccc(F)cc1)N1CC2CN(c3ccc4nnc(C(F)(F)F)n4n3)CC2C1 (stereo not shown) [Example 213, N-(4-fluorophenyl)-2-[3-(trifluoromethyl)-[1,2,4]triazolo[3,4-f]pyridazin-6-yl]-1,3,3a,4,6,6a-hexahydropyrrolo[3,4-c]pyrrole-5-carboxamide]",4.5
3,"CCS(=O)(=O)N1CC2CN(c3ccc4nnc(C(F)(F)F)n4n3)CC2C1 (stereo not shown) [Example 215, 6-(5-ethylsulfonyl-1,3,3a,4,6,6a-hexahydropyrrolo[3,4-c]pyrrol-2-yl)-3-(trifluoromethyl)-[1,2,4]triazolo[3,4-f]pyridazine]",7.4
4,"C[C@@H]1CN(Cc2ccccc2)[C@@H](C)CN1c1ccc2nnc(C(F)(F)F)n2n1 [Example 216, 6-[(2R,5S)-4-benzyl-2,5-dimethylpiperazin-1-yl]-3-(trifluoromethyl)[1,2,4]triazolo[4,3-b]pyridazine]",6.8
5,"C[C@@H]1CN(Cc2cccnc2)[C@@H](C)CN1c1ccc2nnc(C(F)(F)F)n2n1 [Example 217, 6-[(2R,5S)-2,5-dimethyl-4-(pyridin-3-ylmethyl)piperazin-1-yl]-3-(trifluoromethyl)[1,2,4]triazolo[4,3-b]pyridazine]",3.7
6,CC1CN(c2ccc3nnc(C(F)(F)F)n3n2)C(C)CN1Cc1ccc(C#N)cc1 (stereo not shown) [Example 218],> 7.3
7,CC1CN(c2ccc3nnc(C(F)(F)F)n3n2)C(C)CN1Cc1ccc(F)c(F)c1 (stereo not shown) [Example 219],3.5
8,CC1CN(c2ccc3nnc(C(F)(F)F)n3n2)C(C)CN1Cc1cc(F)cc(F)c1 (stereo not shown) [Example 220],3.6
9,CC1CN(c2ccc3nnc(C(F)(F)F)n3n2)C(C)CN1Cc1ccc(F)c(C#N)c1 (stereo not shown) [Example 222],2.6
10,"C[C@@H]1CN(c2ccc3nnc(C(F)(F)F)n3n2)[C@@H](C)CN1Cc1cccnc1 [Example 223, 6-[(2S,5R)-2,5-dimethyl-4-(pyridin-3-ylmethyl)piperazin-1-yl]-3-(trifluoromethyl)[1,2,4]triazolo[4,3-b]pyridazine]",4.7
11,"Fc1ccccc1CCN1CCN(c2ccc3nnc(C(F)(F)F)n3n2)CC1 [Example 229, 6-[4-[2-(2-fluorophenyl)ethyl]piperazin-1-yl]-3-(trifluoromethyl)[1,2,4]triazolo[4,3-b]pyridazine]",1.9
12,Fc1ccc(CCN2CCN(c3ccc4nnc(C(F)(F)F)n4n3)CC2)cc1 [Example 230],2.1
13,FC(F)(F)c1nnc2ccc(N3CCN(CCc4ccc(Cl)cc4)CC3)nn12 [Example 231],2.1
14,FC(F)(F)c1nnc2ccc(N3CCN(CCc4ccccc4Cl)CC3)nn12 [Example 232],3.6
15,FC(F)(F)c1nnc2ccc(N3CCN(CCc4cccc(Cl)c4)CC3)nn12 [Example 233],1.5
16,Fc1cccc(CCN2CCN(c3ccc4nnc(C(F)(F)F)n4n3)CC2)c1 [Example 234],2
17,N#Cc1ccc(CCN2CCN(c3ccc4nnc(C(F)(F)F)n4n3)CC2)cc1 [Example 235],1.9
18,N#Cc1ccc(CN2CCN(c3ccc4nnc(C(F)F)n4n3)CC2)cc1 [Example 237],5.3
19,N#Cc1cccc(CN2CCN(c3ccc4nnc(C(F)F)n4n3)CC2)c1 [Example 238],5
20,CC(F)(F)c1nnc2ccc(N3CCN(Cc4cccc(C#N)c4)CC3)nn12 [Example 242],7.4
21,CC(F)(F)c1nnc2ccc(N3CCN(Cc4cccc(F)c4)CC3)nn12 [Example 243],3.7
22,CCC(F)(F)c1nnc2ccc(N3CCN(Cc4cccc(C#N)c4)CC3)nn12 [Example 246],23
23,FC(F)c1nnc2ccc(N3CCN(Cc4cccc(Cl)c4)CC3)nn12 [Example 248],1.7
24,Fc1ccc(CN2CCN(c3ccc4nnc(C(F)F)n4n3)CC2)c(F)c1 [Example 249],6.3
25,Fc1ccc(CN2CCN(c3ccc4nnc(C(F)F)n4n3)CC2)cc1F [Example 250],4.9
26,Fc1cc(F)cc(CN2CCN(c3ccc4nnc(C(F)F)n4n3)CC2)c1 [Example 251],9.3
27,Fc1cccc(F)c1CN1CCN(c2ccc3nnc(C(F)F)n3n2)CC1 [Example 252],8.9
28,COc1ccc(CN2CCN(c3ccc4nnc(C(F)F)n4n3)CC2)c(F)c1 [Example 253],3.7

row,Compound,DC50 [µM]
1,FC(F)c1nnc2ccc(N3CCN(Cc4cccc(C(F)(F)F)c4)CC3)nn12 [Example 255],1.8
2,Fc1cccc(CN2CCN(c3ccc4nnc(C(F)F)n4n3)CC2)c1F [Example 256],7.4
3,COc1cc(CN2CCN(c3ccc4nnc(C(F)F)n4n3)CC2)ccc1F [Example 257],9
4,COc1ccc(F)c(CN2CCN(c3ccc4nnc(C(F)F)n4n3)CC2)c1 [Example 258],6.4
5,Fc1ccc(F)c(CN2CCN(c3ccc4nnc(C(F)F)n4n3)CC2)c1 [Example 259],4.8
6,N#Cc1cc(CN2CCN(c3ccc4nnc(C(F)F)n4n3)CC2)ccc1F [Example 260],5.6
7,COc1ccc(CN2CCN(c3ccc4nnc(C(F)F)n4n3)CC2)cc1F [Example 261],7.9
8,N#Cc1ccc(CN2CCN(c3ccc4nnc(C(F)F)n4n3)CC2)c(F)c1 [Example 262],25
9,FC(F)c1nnc2ccc(N3CCN(Cc4csc5ccccc45)CC3)nn12 [Example 264],0.95
10,FC(F)c1nnc2ccc(N3CCN(Cc4c[nH]c5ccccc45)CC3)nn12 [Example 265],3.8
11,"FC(F)c1nnc2ccc(N3CCC(c4c[nH]c5ccccc45)CC3)nn12 [Example 266, 3-(difluoromethyl)-6-[4-(1H-indol-3-yl)piperidin-1-yl][1,2,4]triazolo[4,3-b]pyridazine]",0.63
12,COc1cccc(OC2CCN(c3ccc4nnc(C(F)F)n4n3)CC2)c1 [Example 267],0.85
13,Fc1cccc(OC2CCN(c3ccc4nnc(C(F)F)n4n3)CC2)c1 [Example 268],0.91
14,"C[C@H](c1ccc(F)cc1)N1CCN(c2ccc3nnc(C(F)F)n3n2)CC1 [Example 269, 3-(difluoromethyl)-6-[4-[(1R)-1-(4-fluorophenyl)ethyl]piperazin-1-yl][1,2,4]triazolo[4,3-b]pyridazine]",2
15,"CC(C)(c1ccc(F)cc1)N1CCN(c2ccc3nnc(C(F)F)n3n2)CC1 [Example 271, 3-(difluoromethyl)-6-[4-[1-(4-fluorophenyl)-1-methylethyl]piperazin-1-yl][1,2,4]triazolo[4,3-b]pyridazine]",1.8
16,"Fc1cccc(CN2CC=C(c3ccc4nnc(C(F)(F)F)n4n3)CC2)c1 [Example 272, 6-[1-(3-fluorobenzyl)-1,2,3,6-tetrahydropyridin-4-yl]-3-(trifluoromethyl)-[1,2,4]triazolo[4,3-b]pyridazine]",1.8
17,Fc1ccc(-c2nc(N3CCN(c4ccc5nnc(C(F)(F)F)n5n4)CC3)no2)cc1 [Example 274],6.1
18,FC(F)(F)c1nnc2ccc(N3CCN(c4noc(-c5ccccc5)n4)CC3)nn12 [Example 275],6
19,N#Cc1ccc(-c2nc(N3CCN(c4ccc5nnc(C(F)(F)F)n5n4)CC3)no2)cc1 [Example 277],2
20,N#Cc1ccc2[nH]cc(CN3CCN(c4ccc5nnc(C(F)(F)F)n5n4)CC3)c2c1 [Example 278],0.65
21,FC(F)(F)c1nnc2ccc(N3CCN(Cc4c[nH]c5ccc(Cl)cc45)CC3)nn12 [Example 280],0.78
22,FC(F)(F)c1nnc2ccc(N3CCN(Cc4c[nH]c5ccc(Br)cc45)CC3)nn12 [Example 281],0.8
23,FC(F)(F)c1nnc2ccc(N3CCN(Cc4c[nH]c5cccc(Cl)c45)CC3)nn12 [Example 282],2.4
24,Fc1ccc2[nH]cc(CN3CCN(c4ccc5nnc(C(F)(F)F)n5n4)CC3)c2c1 [Example 283],0.78
25,Fc1ccc2c(CN3CCN(c4ccc5nnc(C(F)(F)F)n5n4)CC3)c[nH]c2c1 [Example 284],0.98
26,"FC(F)(F)c1nnc2ccc(N3CCN(Cc4n[nH]c5ccccc45)CC3)nn12 [Example 285, 6-[4-(1H-indazol-3-ylmethyl)piperazin-1-yl]-3-(trifluoromethyl)[1,2,4]triazolo[4,3-b]pyridazine]",2.7
27,N#Cc1ccc2[nH]cc(CN3CCN(c4ccc5nnc(C(F)F)n5n4)CC3)c2c1 [Example 286],8.5
